From patent US20250040539A1, “COMPOSITION COMPRISING AN ANTIMICROBIAL AGENT AND A CARBOXAMIDE” (BASF SE, priority 2021, published 2025)

What was measured:
[1] = tested on: bacterial mix: Escherichia coli DSM 1576, Alcaligenes faecalis DSM 13644, Pseudomonas aeuginosa ATCC 15442, Staphylococcus aureus ATCC 6538, Burkholderia …; experiment: Preservative activity of a basic composition (10% PG in water, pH 7) with 2-phenoxyethanol against bacterial contamination (Example 2.1); assay type: cell-based; details: 10% PG + 0.36% PE + 0.04% amide; for d7 [CFU/ml]: day 7; for d14 [CFU/ml]: day 14; for d21 [CFU/ml]: day 21
Description: An aqueous composition of pH 7 comprising 10% by weight of propyleneglycol (PG) as organic solvent, 0.36% by weight of 2-phenoxyethanol (PE) as antimicrobial and 0.04% by weight of the amide listed in the below table was tested for its preserving activity against bacterial contamination (the weight percentages relate to the total weight of the composition). For this purpose, the samples were contaminated with a bacterial mix consisting of: • Escherichia coli DSM 1576 • Alcaligenes faecalis DSM 13644 • Pseudomonas aeuginosa ATCC 15442 • Staphylococcus aureus ATCC 6538 • Burkholderia cepacia DSM 7288 • Pseudomonas putida DSM 12735
The samples were inoculated with the bacterial mix at day 0, 7 and 14 to obtain 10E+06 to 10E+07 CFU/ml inoculation in the test samples (compositions listed in the below table) consisting of 10% by weight of propylene glycol in water and stored at 25° C. for 21 days.
(§1) CFU was determined before re-inoculation at days 7 and 14, and on day 21.

[2] = tested on: fungal mix (including yeasts and molds): Aspergillus brasiliensis DSM 1988, Rhodotorula mucilaginosa DSM 13621, Yarrowia lipolytica DSM 8218; experiment: Preservative activity of a basic composition (10% PG in water, pH 7) with 2-phenoxyethanol against fungal contamination (Example 1.1); assay type: cell-based; details: 10% PG + 0.36% PE + 0.04% Amide in water, pH 7, 25° C.; for d7 [CFU/ml]: fungal mix inoculated at day 0, 7 and 14 (1-3x10E+05 CFU/ml), day 7 before re-inoculation; for d14 [CFU/ml] / d21 [CFU/ml]: fungal mix inoculated at day 0, 7 and 14; for d14 [CFU/ml]: day 14 before re-inoculation; for d21 [CFU/ml]: day 21
Description: An aqueous composition of pH 7 comprising 10% by weight of propyleneglycol (PG) as organic solvent, 0.36% by weight of 2-phenoxyethanol (PE) as antimicrobial and 0.04% by weight of the amide listed in the below table was tested for its preserving activity against fungal contamination (the percentages are weight percent and relate to the total weight of the composition). For this purpose, the samples were contaminated with a fungal mix (including yeasts and molds) consisting of: • Aspergillus brasiliensis DS M 1988 • Rhodotorula mucilaginosa DSM 13621 • Yarrowia lipolytica DS M 8218
To control the efficacy, following control compositions were tested: • “Reference”, consisting of only 10% by weight of propylene glycol in water • “Comparative 1” containing 10% by weight of propylene glycol and amide in the given concentration, but no 2-phenoxyethanol • […] in the given concentration, but no amide.
The samples were inoculated with the fungal mix at day 0, 7 and 14 to obtain a cell density in the range of 1-3×10E+05 CFU/ml (CFU=colony forming units) in the test samples (compositions listed in the below table) and stored at 25° C. for 21 days.
as §1

| Compound | d7 [CFU/ml] [1] | d14 [CFU/ml] [1] | d21 [CFU/ml] [1] | d7 [CFU/ml] [2] | d14 [CFU/ml] [2] | d21 [CFU/ml] [2] |
| --- | --- | --- | --- | --- | --- | --- |
| CCCCCC(CCC)C(=O)N(C)C (stereo not drawn) [2-Propyl-heptanoyl-N,N-dimethylamide] | <10 CFU/ml | 90 CFU/ml | 2,700 CFU/ml |  |  |  |
| CCCCCC(CCC)C(=O)N(C)C (stereo not drawn) [2-Propylheptanoyl-N,N-dimethylamide] |  |  |  | 5,200 CFU/ml | 3,250 CFU/ml | 8,000 CFU/ml |
| CCCCCCCCCCCC(=O)N(C)C [Dodecanoyl-N,N-dimethylamide] | <10 CFU/ml | <10 CFU/ml | 450 CFU/ml | 25 CFU/ml | 170 CFU/ml | 245 CFU/ml |
| CCCCCCN(CCCCCC)C(C)=O [Ethanoyl-N,N-dihexylamide] | 75 CFU/ml | 200 CFU/ml | 1,450 CFU/ml | 3,100 CFU/ml | 2,750 CFU/ml | 2,450 CFU/ml |
| CC(CC(=O)N(C)C)CC(C)(C)C (stereo not drawn) [Isononanoyl-N,N-dimethylamide] | 3,850 CFU/ml | 13,500 CFU/ml | 5,000 CFU/ml | 3,600 CFU/ml | 3,350 CFU/ml | 15,000 CFU/ml |
| CCCCCCCC(=O)N(C)C [n-Octanoyl-N,N-dimethylamide] | 25 CFU/ml | 2,100 CFU/ml | 5,550 CFU/ml |  |  |  |
| CCCCN(CCCC)C(=O)CC [n-Propanoyl-N,N-dibutylamide] | 39,500 CFU/ml | 39,000 CFU/ml | 23,500 CFU/ml | 1,750 CFU/ml | 3,750 CFU/ml | 25,000 CFU/ml |
